The structures appear in SMILES notation.

Data set [1] deals with HCT116 human colorectal cancer cells. Description: Tumorigenicity assay, HCT116 xenografts in nude mice. In kind it is in vivo. The note with it: for Effect with C. novyi-NT / Effect alone: nude mice; for Effect alone: agent alone. From the text:
(§1) All animal protocols were designed in accordance with the Guide for the Care and Use of Laboratory Animals (NIH Publication 86-23) and were approved by the Johns Hopkins University Institutional Animal Care and Use Committee. Six to eight week old mice were implanted subcutaneously on one flank with 3 to 6 million cancer cells. Establishment of tumors of 150 to 500 mm3 took 8 to 21 days, depending on the cell type. C. novyi-NT spores (300×106) and anti-microtubule agents were generally administered by a single intravenous injection through the tail vein in a total volume of 300 to 500 ul phosphate-buffered saline (PBS). Quantitative assessment of tumor growth was performed by measuring subcutaneous tumor grafts (major and minor axis) using electronic calipers. Tumor volume was calculated using the equation: length×width2×0.5. Progression free survival was defined as the length of time following treatment before any increase in tumor volume was observed. Mice were considered “cured” if no tumor was evident three months after treatment. Animals were weighed at least twice a week and carefully observed for signs of toxicity every day for the first week following treatment and then twice a week thereafter. At least five mice were used for each treatment arm described in the Experimental Results.
The timing, route, and dose of agents are critical for the success of any experimental therapy. When two agents are combined, the number of variables that must be tested increases exponentially. To simplify interpretation of the comparisons between various anti-microtubule agents, pilot studies with representative drugs were performed.
Eighteen agents known to interact with microtubules were each tested in this manner in nude mice harboring xenografts of HCT116 human colorectal cancer cells. At least five mice harboring tumors of 150 to 500 mm3 in size were used for each experimental arm. Two classes of responses were noted. One type of response was characterized by a rapid hemorrhagic necrosis, observed only with agents that inhibited microtubule […] (FIG. 1A, B). The other type of response was characterized by a slow regression, observed with agents that stabilized microtubules (FIG. 2A, B).

Data set [2] has as its system HuCC-T1 cholangiocarcinoma. Description: Tumorigenicity assay, HuCC-T1 xenografts. The format is in vivo, nude mice.
From the text: as §1
We next evaluated the responses to COBALT/HTI-286 in other murine tumor models. […]

Data set [3] is described as follows: Mortality following COBALT. In kind it is in vivo, nude mice. To be noted: deaths within one week, pooled xenograft models.
From the text: as §1
(§2) This toxicity was observed only when the combination of C. novyi-NT spores and the drugs was administered and not with either the bacteria or the drugs alone. […] Though major tumor regressions were common, few mice died as a result of therapy (Table 2) No deaths occurred after treatment with the microtubule stabilizers plus C. novyi-NT, while 4% to 8% of mice treated with microtubule destabilizers plus C. novyi-NT died. The only other toxicity observed was transient weight loss (Table 3). Mice treated with the drugs alone lost ˜5 to 10% of their body weight within 7 days, while weight loss after treatment with C. novyi-NT plus these drugs varied from 8% to 18%. All weights recovered to pre-treatment levels within two weeks.

A further data set in a line: Weight loss after COBALT. To be noted: drug dose 60.0 mg/kg; maximum average weight loss relative to weight one day prior to treatment; HCT116 xenografts. In kind it is in vivo, nude mice.
From the text: as §1, §2

Regarding `CCC(=O)O[C@H]1C[C@H]2OC[C@@]2(OC(C)=O)[C@H]2[C@H](OC(=O)c3ccccc3)[C@]3(O)C[C@H](OC(=O)[C@H](O)[C@@H](NC(=O)OC(C)(C)C)c4ccco4)C(C)=C([C@@H](O)C(=O)[C@]12C)C3(C)C` [MAC-321, 5β,20-epoxy-1,2α-,4-,7β-,10β-,13α-hexahydroxytax-11-en-9-one 4 acetate 2 benzoate 7 propionate 13-ester with (2R,3S)—N-tertbutoxycarbonyl-3-(2-furyl)isoserine], the “Effect with C. novyi-NT” value is listed as “++ (10% to 50% shrinkage in tumor volume relative to pre-treatment size)” in data set [1] (10 mg/kg × 1 (iv) with 3×108 C. novyi-NT spores iv); “++++ (>20% cures)” in data set [1] (45 mg/kg × 1 (iv) with 3×108 C. novyi-NT spores iv); “++++ (>20% cures)” in data set [1] (50 mg/kg × 1 (iv) with 3×108 C. novyi-NT spores iv); “++++ (>20% cures)” in data set [1] (60 mg/kg × 1 (iv) with 3×108 C. novyi-NT spores iv); “++++ (>20% cures)” in data set [1] (70 mg/kg × 1 (iv) with 3×108 C. novyi-NT spores iv). In addition, the Effect alone entry in data set [1] (10 mg/kg × 1 (iv)) is listed as “+”; in data set [1] (45 mg/kg × 1 (iv)), “+++ (>50% shrinkage in tumor volume relative to pre-treatment size)”; in data set [1] (50 mg/kg × 1 (iv)), “+++ (>50% shrinkage in tumor volume relative to pre-treatment size)”; in data set [1] (60 mg/kg × 1 (iv)) it was “+++ (>50% shrinkage in tumor volume relative to pre-treatment size)”; in data set [1] (70 mg/kg × 1 (iv)) it was “+++ (>50% shrinkage in tumor volume relative to pre-treatment size)”. In data set [1] (cured = no tumor evident three months after treatment), the “mice cured (in words)” value is given as “no mice”. The “mice cured (number of mice)” value in data set [2] is reported as “one of eight”. The “# dead (treatment-related deaths)” value in data set [3] (drug dose 45.0 mg/kg), in data set [3] (drug dose 50.0 mg/kg), in data set [3] (drug dose 60.0 mg/kg) and in data set [3] (drug dose 70.0 mg/kg) was 0 each time. Moreover, the “Weight Loss (%)” value in the data set “Weight loss after COBALT” is listed as 5.5%.

Source of the values: patent US8007782B2, “Combination bacteriolytic therapy for the treatment of tumors” (priority 2003, dated 2011).
